± gives the expanded uncertainty stated by the source.
Conditions: 283.14 K, Liquid, Vibrating tube method

With `CCCCCCC(=O)OCC(COC(=O)CCCCCC)(COC(=O)CCCCCC)COC(=O)CCCCCC` [pentaerythritol tetraheptanoate] the mass density (19935 kPa) was 997 ± 1.2 kg/m3, the mass density (19962 kPa) was 996.9 ± 1.2 kg/m3 and the mass density (19984 kPa) was 996.9 ± 1.2 kg/m3. It also gave a mass density (20007 kPa) of 996.9 ± 1.2 kg/m3, a mass density (20034 kPa) of 997 ± 1.2 kg/m3 and a mass density (20057 kPa) of 997 ± 1.2 kg/m3. The mass density (20081 kPa) was 997 ± 1.2 kg/m3, the mass density (20105 kPa) was 997 ± 1.2 kg/m3 and the mass density (20133 kPa) was 997 ± 1.2 kg/m3. It also gave a mass density (20156 kPa) of 997 ± 1.2 kg/m3, a mass density (20179 kPa) of 997.1 ± 1.2 kg/m3 and a mass density (20202 kPa) of 997 ± 1.2 kg/m3. The mass density (20230 kPa) was 997 ± 1.2 kg/m3, the mass density (20253 kPa) was 997.1 ± 1.2 kg/m3 and the mass density (20282 kPa) was 997.1 ± 1.2 kg/m3. For the same compound, the mass density (20305 kPa) was 997 ± 1.2 kg/m3, the mass density (20328 kPa) was 997.1 ± 1.2 kg/m3 and the mass density (20356 kPa) was 997.1 ± 1.2 kg/m3. For the same compound, the mass density (20380 kPa) was 997.1 ± 1.2 kg/m3, the mass density (20404 kPa) was 997.2 ± 1.2 kg/m3 and the mass density (20428 kPa) was 997.2 ± 1.2 kg/m3. For the same compound, the mass density (20456 kPa) was 997.2 ± 1.2 kg/m3, the mass density (20480 kPa) was 997.2 ± 1.2 kg/m3 and the mass density (20504 kPa) was 997.2 ± 1.2 kg/m3. The mass density (20533 kPa) was 997.2 ± 1.2 kg/m3, the mass density (20557 kPa) was 997.2 ± 1.2 kg/m3 and the mass density (20586 kPa) was 997.3 ± 1.2 kg/m3. The mass density (20610 kPa) was 997.3 ± 1.2 kg/m3, the mass density (20634 kPa) was 997.3 ± 1.2 kg/m3 and the mass density (20663 kPa) was 997.3 ± 1.2 kg/m3. For the same compound, the mass density (20688 kPa) was 997.3 ± 1.2 kg/m3, the mass density (20713 kPa) was 997.3 ± 1.2 kg/m3 and the mass density (20742 kPa) was 997.2 ± 1.2 kg/m3. The mass density (20768 kPa) was 997.5 ± 1.2 kg/m3, the mass density (20792 kPa) was 997.5 ± 1.2 kg/m3 and the mass density (20822 kPa) was 997.5 ± 1.2 kg/m3. It also gave a mass density (20846 kPa) of 997.4 ± 1.2 kg/m3, a mass density (20871 kPa) of 997.4 ± 1.2 kg/m3 and a mass density (20896 kPa) of 997.4 ± 1.2 kg/m3. The mass density (20926 kPa) was 997.4 ± 1.2 kg/m3, the mass density (20951 kPa) was 997.4 ± 1.2 kg/m3 and the mass density (20976 kPa) was 997.4 ± 1.2 kg/m3. For the same compound, the mass density (21007 kPa) was 997.6 ± 1.2 kg/m3, the mass density (21032 kPa) was 997.5 ± 1.2 kg/m3 and the mass density (21062 kPa) was 997.5 ± 1.2 kg/m3. For the same compound, the mass density (21088 kPa) was 997.5 ± 1.2 kg/m3, the mass density (21114 kPa) was 997.6 ± 1.2 kg/m3 and the mass density (21140 kPa) was 997.6 ± 1.2 kg/m3. The mass density (21171 kPa) was 997.6 ± 1.2 kg/m3, the mass density (21196 kPa) was 997.4 ± 1.2 kg/m3 and the mass density (21222 kPa) was 997.6 ± 1.2 kg/m3. The mass density (21254 kPa) was 997.6 ± 1.2 kg/m3, the mass density (21279 kPa) was 997.6 ± 1.2 kg/m3 and the mass density (21310 kPa) was 997.7 ± 1.2 kg/m3. For the same compound, the mass density (21336 kPa) was 997.5 ± 1.2 kg/m3, the mass density (21362 kPa) was 997.7 ± 1.2 kg/m3 and the mass density (21393 kPa) was 997.6 ± 1.2 kg/m3. It also gave a mass density (21419 kPa) of 997.7 ± 1.2 kg/m3, a mass density (21446 kPa) of 997.7 ± 1.2 kg/m3 and a mass density (21473 kPa) of 997.7 ± 1.2 kg/m3. For the same compound, the mass density (21505 kPa) was 997.7 ± 1.2 kg/m3, the mass density (21531 kPa) was 997.7 ± 1.2 kg/m3 and the mass density (21558 kPa) was 997.6 ± 1.2 kg/m3. It also gave a mass density (21585 kPa) of 997.8 ± 1.2 kg/m3, a mass density (21617 kPa) of 997.6 ± 1.2 kg/m3 and a mass density (21644 kPa) of 997.8 ± 1.2 kg/m3. It also gave a mass density (21671 kPa) of 997.9 ± 1.2 kg/m3, a mass density (21703 kPa) of 997.8 ± 1.2 kg/m3 and a mass density (21730 kPa) of 997.9 ± 1.2 kg/m3. It also gave a mass density (21758 kPa) of 997.8 ± 1.2 kg/m3, a mass density (21790 kPa) of 997.9 ± 1.2 kg/m3 and a mass density (21818 kPa) of 997.9 ± 1.2 kg/m3. For the same compound, the mass density (21846 kPa) was 997.9 ± 1.2 kg/m3, the mass density (21873 kPa) was 997.7 ± 1.2 kg/m3 and the mass density (21906 kPa) was 998 ± 1.2 kg/m3. It also gave a mass density (21933 kPa) of 997.9 ± 1.2 kg/m3, a mass density (21961 kPa) of 998 ± 1.2 kg/m3 and a mass density (21994 kPa) of 997.9 ± 1.2 kg/m3. For the same compound, the mass density (22022 kPa) was 997.9 ± 1.2 kg/m3, the mass density (22055 kPa) was 998 ± 1.2 kg/m3 and the mass density (22083 kPa) was 998 ± 1.2 kg/m3. It also gave a mass density (22111 kPa) of 997.9 ± 1.2 kg/m3, a mass density (22139 kPa) of 998.1 ± 1.2 kg/m3 and a mass density (22174 kPa) of 998.1 ± 1.2 kg/m3. It also gave a mass density (22199 kPa) of 998 ± 1.2 kg/m3, a mass density (22233 kPa) of 998.1 ± 1.2 kg/m3 and a mass density (22261 kPa) of 998.2 ± 1.2 kg/m3. For the same compound, the mass density (22294 kPa) was 998.1 ± 1.2 kg/m3, the mass density (22323 kPa) was 998.1 ± 1.2 kg/m3 and the mass density (22352 kPa) was 998.2 ± 1.2 kg/m3. It also gave a mass density (22381 kPa) of 998.2 ± 1.2 kg/m3, a mass density (22416 kPa) of 998.2 ± 1.2 kg/m3 and a mass density (22444 kPa) of 998.2 ± 1.2 kg/m3. The mass density (22474 kPa) was 998.1 ± 1.2 kg/m3, the mass density (22509 kPa) was 998.2 ± 1.2 kg/m3 and the mass density (22538 kPa) was 998.2 ± 1.2 kg/m3. For the same compound, the mass density (22569 kPa) was 998.2 ± 1.2 kg/m3, the mass density (22599 kPa) was 998.2 ± 1.2 kg/m3 and the mass density (22628 kPa) was 998.3 ± 1.2 kg/m3. For the same compound, the mass density (22664 kPa) was 998.4 ± 1.2 kg/m3, the mass density (22694 kPa) was 998.3 ± 1.2 kg/m3 and the mass density (22724 kPa) was 998.3 ± 1.2 kg/m3. The mass density (22760 kPa) was 998.4 ± 1.2 kg/m3, the mass density (22789 kPa) was 998.4 ± 1.2 kg/m3 and the mass density (22819 kPa) was 998.3 ± 1.2 kg/m3. The mass density (22855 kPa) was 998.4 ± 1.2 kg/m3, the mass density (22886 kPa) was 998.5 ± 1.2 kg/m3 and the mass density (22915 kPa) was 998.4 ± 1.2 kg/m3. For the same compound, the mass density (22952 kPa) was 998.5 ± 1.2 kg/m3, the mass density (22982 kPa) was 998.4 ± 1.2 kg/m3 and the mass density (23012 kPa) was 998.5 ± 1.2 kg/m3. It also gave a mass density (23049 kPa) of 998.6 ± 1.2 kg/m3.
